This note sets out measurements from the C3SDB collision cross section collection.

For data set [1] the following is noted: instrument: DT, single field, calibrated with Agilent tune mix (Agilent).
For data set [2] the following is noted: instrument: TW, calibrated with polyalanine.
For data set [3] the following is noted: instrument: DT, stepped-field.
For data set [4] the following is noted: instrument: TW, calibrated with phosphatidylcholines (ESI+) and phosphatidylethanolamines (ESI-), doubly charged cardiolipins calibrated with poly-DL-….

For the compound `Cn1cnc(C[C@H](N)C(=O)O)c1` [1-Methylhistidine], the entries for the “collision cross section (N2)” value in data set [1] ([M+H]+), in data set [1] ([M-H]-) and in data set [2] ([M+H]+) were 133.1 Å², 139.64 Å² and 129 Å², respectively. Turning to `O=C(O)[C@H](O)COP(=O)(O)O` [3-Phosphoglyceric acid], the “collision cross section (N2)” value in data set [2] ([M+Na]+) is listed as 134 Å². For the compound `O=C(O)[C@H](O)[C@@H](O)[C@H](O)[C@H](O)COP(=O)(O)O` [6-Phosphogluconate], the “collision cross section (N2)” value in data set [2] ([M+Na]+) turned out to be 159 Å². Regarding `Nc1ncnc2c1ncn2[C@@H]1O[C@H](COP(=O)(O)OP(=O)(O)O)[C@@H](O)[C@H]1O` [ADP], the “collision cross section (N2)” value in data set [2] ([M+H]+) is 181 Å². For `NC(=O)c1ncn([C@@H]2O[C@H](CO)[C@@H](O)[C@H]2O)c1N` [Acadesine], the “collision cross section (N2)” value in data set [2] ([M+H]+) is listed as 152 Å². Consider `CC(=O)O[C@H](CC(=O)[O-])C[N+](C)(C)C` [Acetylcarnitine], for which the entries for the “collision cross section (N2)” value in data set [1] ([M+H]+) and in data set [2] ([M+H]+) were 143 Å² and 142 Å², respectively. For `Nc1ncnc2nc[nH]c12` [Adenine], the “collision cross section (N2)” value in data set [1] ([M+H]+) came to 125.1 Å²; in data set [3] ([M+H]+) it was 127.9 Å²; in data set [2] ([M+H]+), 119 Å². Turning to `Nc1ncnc2c1ncn2[C@@H]1O[C@H](CO)[C@@H](O)[C@H]1O` [Adenosine], the “collision cross section (N2)” value was 155.7 Å² in data set [1] ([M+H]+), 156.97 Å² in data set [3] ([M+H]+), 170.07 Å² in data set [3] ([M+Na]+) and 151 Å² in data set [2] ([M+H]+). `NC(=O)C[C@H](N)C(=O)O` [Asparagine]: in data set [2] ([M+H]+), the “collision cross section (N2)” value amounted to 118 Å². As for `Nc1ccn([C@@H]2O[C@H](COP(=O)(O)O)[C@@H](O)[C@H]2O)c(=O)n1` [CMP], in data set [2] ([M+H]+), the “collision cross section (N2)” value turned out to be 163 Å².

Regarding `N[C@@H](CS)C(=O)O` [Cysteine], the “collision cross section (N2)” value in data set [2] ([M+H]+) was 113 Å². With `N[C@@H](CSSC[C@H](N)C(=O)O)C(=O)O` [Cystine], the “collision cross section (N2)” value in data set [2] ([M+H]+) is 145 Å². In the case of `Nc1ccn([C@@H]2O[C@H](CO)[C@@H](O)[C@H]2O)c(=O)n1` [Cytidine], the figures for the “collision cross section (N2)” value in data set [1] ([M+Na]+) and in data set [2] ([M+H]+) were 159.5 Å² and 148 Å², respectively. `CN(C)CC(=O)O` [Dimethylglycine]: the “collision cross section (N2)” value was 119.7 Å² in data set [1] ([M+H]+) and 116 Å² in data set [2] ([M+H]+).

As for `Nc1nc(=O)c2nc(CNc3ccc(C(=O)N[C@@H](CCC(=O)O)C(=O)O)cc3)cnc2[nH]1` [Folic acid], in data set [2] ([M+Na]+), the “collision cross section (N2)” value was found to be 202 Å². For the compound `Nc1nc(=O)c2ncn([C@@H]3O[C@H](COP(=O)(O)OP(=O)(O)OP(=O)(O)O)[C@@H](O)[C@H]3O)c2[nH]1` [GTP], the “collision cross section (N2)” value in data set [2] ([M+H]+) amounted to 196 Å². The same measure, in the same setting: the same measure for `N[C@@H](CCC(=O)O)C(=O)O` [Glutamic acid]: 123 Å². For `NC(=O)CC[C@H](N)C(=O)O` [Glutamine], the “collision cross section (N2)” value in data set [3] ([M+H]+) worked out at 133.45 Å²; in data set [3] ([M+Na]+), 138.11 Å²; in data set [2] ([M+H]+), 124 Å². With `Nc1nc(=O)c2ncn([C@@H]3O[C@H](CO)[C@@H](O)[C@H]3O)c2[nH]1` [Guanosine], the “collision cross section (N2)” value in data set [1] ([M+Na]+) stood at 174.6 Å²; in data set [3] ([M+H]+), 165.02 Å²; in data set [3] ([M+Na]+), 177.25 Å²; in data set [2] ([M+H]+), 160 Å². With `N[C@@H](Cc1cnc[nH]1)C(=O)O` [Histidine], in data set [2] ([M+H]+), the “collision cross section (N2)” value was determined as 127 Å².

As to `N[C@@H](CCS)C(=O)O` [Homocysteine], the entries for the “collision cross section (N2)” value in data set [3] ([M+H]+) and in data set [2] ([M+H]+) were 130.53 Å² and 124 Å², respectively.

On to `O=C(O)[C@@H]1C[C@@H](O)CN1` [Hydroxyproline], for which the figures for the “collision cross section (N2)” value in data set [1] ([M+H]+) and in data set [2] ([M+H]+) were 128.1 Å² and 122 Å², respectively. As for `O=c1nc[nH]c2nc[nH]c12` [Hypoxanthine], the “collision cross section (N2)” value in data set [1] ([M+H]+) is given as 127.1 Å²; in data set [3] ([M+H]+), 135.79 Å²; in data set [3] ([M+Na]+), 138.88 Å²; in data set [2] ([M+H]+), 120 Å². Regarding `O=c1nc[nH]c2c1ncn2[C@@H]1O[C@H](CO)[C@@H](O)[C@H]1O` [Inosine], the “collision cross section (N2)” value in data set [1] ([M+Na]+) is on record as 170.7 Å²; in data set [3] ([M+H]+), 159.25 Å²; in data set [3] ([M+Na]+), 175.37 Å²; in data set [2] ([M+H]+), 153 Å².

Take `CC(C)C[C@H](N)C(=O)O` [Leucine]: the “collision cross section (N2)” value in data set [2] ([M+H]+) was found to be 128 Å².

As to `OC[C@H]1OC(O)[C@@H](O)[C@@H](O)[C@@H]1O` (some centres not stated) [Mannose], the “collision cross section (N2)” value in data set [2] ([M+Na]+) is on record as 138 Å². As for `C[C@@](O)(CCO)CC(=O)O` [Mevalonic acid], the “collision cross section (N2)” value in data set [2] ([M+Na]+) was 128 Å². Regarding `NC(=O)c1cccnc1` [Niacinamide], the “collision cross section (N2)” value in data set [2] ([M+H]+) turned out to be 118 Å².

In the case of `CCCCCC/C=C\CCCCCCCC(=O)OCC(COP(=O)(O)OCC(O)CO)OC(=O)CCCCCCCC1CC1CCCCCC` (configuration not stated) [PG(33:2)], the results for the “collision cross section (N2)” value in data set [4] ([M+Na]+) and in data set [4] ([M-H]-) were 275.67 Å² and 264.54 Å², respectively. The matching figures for `CCCCCCCCCCCCCCCC(=O)OCC(COP(=O)(O)OCC(O)CO)OC(=O)CCCCCCCC1CC1CCCCCCCC` (configuration not stated) [PG(35:1)]: 287.26 Å² and 273.44 Å². For the compound `CCCCCCCC/C=C\CCCCCCCC(=O)OCC(COP(=O)(O)OCC(O)CO)OC(=O)CCCCCCC/C=C\CCCCCCCC` (configuration not stated) [PG(36:2)], the results for the “collision cross section (N2)” value in data set [4] ([M+Na]+) and in data set [4] ([M-H]-) were 283.87 Å² and 275.05 Å², respectively. Take `C=C(OP(=O)(O)O)C(=O)O` [Phosphoenolpyruvate]: the “collision cross section (N2)” value in data set [2] ([M+Na]+) came out at 131 Å².

Regarding `O=C(O)[C@@H]1CCCN1` [Proline], in data set [2] ([M+H]+), the “collision cross section (N2)” value turned out to be 118 Å². Same read-out and setting: the same measure for `C[C@@H](O)[C@H](N)C(=O)O` [Threonine]: 122 Å². With `O=c1ccn([C@@H]2O[C@H](CO)[C@@H](O)[C@H]2O)c(=O)[nH]1` [Uridine], the “collision cross section (N2)” value was found to be 160.1 Å² in data set [1] ([M+Na]+), 166 Å² in data set [3] ([M+Na]+) and 152 Å² in data set [2] ([M+H]+).

As for `O=c1[nH]c(=O)c2[nH]cnc2[nH]1` [Xanthine], the “collision cross section (N2)” value was 130.3 Å² in data set [1] ([M+H]+), 138.11 Å² in data set [3] ([M+H]+), 152.65 Å² in data set [3] ([M+Na]+) and 124 Å² in data set [2] ([M+H]+). For `Nc1ncnc2c1ncn2[C@H]1C[C@H](O)[C@@H](COP(=O)(O)O)O1` [dAMP], the “collision cross section (N2)” value in data set [2] ([M+H]+) was 164 Å².

On to `Nc1ccn([C@H]2C[C@H](O)[C@@H](COP(=O)(O)O)O2)c(=O)n1` [dCMP], for which the “collision cross section (N2)” value in data set [2] ([M+Na]+) is reported as 161 Å².

Turning to `N[C@@H](CCC(=O)N[C@@H](CSSC[C@H](NC(=O)CC[C@H](N)C(=O)O)C(=O)NCC(=O)O)C(=O)NCC(=O)O)C(=O)O` [glutathione disulfide], the “collision cross section (N2)” value in data set [2] ([M+H]+) stood at 227 Å².

With `CCCCCCCCCCCCCCCC(=O)OC(CC(=O)[O-])C[N+](C)(C)C` (configuration not stated) [palmitoylcarnitine], in data set [2] ([M+H]+), the “collision cross section (N2)” value is recorded as 217 Å². On to `Cc1ncc(C[n+]2csc(CCO)c2C)c(N)n1` [thiamine], for which, in data set [2] ([M]+), the “collision cross section (N2)” value worked out at 159 Å².
